Test results reported in patent US7786141B2 (Vertex Pharmaceuticals Incorporated, priority 2004, dated 2010).
Where two headings read alike, the source gives them in different places.

Experiments:
M4 muscarinic receptor = target: T1, M4 muscarinic receptor (Homo sapiens, UniProt P08173); test: Functional mobilization of intracellular calcium (FLIPR) in M4-CHO cells; format: cell-based
T1 construct: expressed in transfected cells; host or cells: CHO (M4-CHO)
T1 sequence (P08173 1-479): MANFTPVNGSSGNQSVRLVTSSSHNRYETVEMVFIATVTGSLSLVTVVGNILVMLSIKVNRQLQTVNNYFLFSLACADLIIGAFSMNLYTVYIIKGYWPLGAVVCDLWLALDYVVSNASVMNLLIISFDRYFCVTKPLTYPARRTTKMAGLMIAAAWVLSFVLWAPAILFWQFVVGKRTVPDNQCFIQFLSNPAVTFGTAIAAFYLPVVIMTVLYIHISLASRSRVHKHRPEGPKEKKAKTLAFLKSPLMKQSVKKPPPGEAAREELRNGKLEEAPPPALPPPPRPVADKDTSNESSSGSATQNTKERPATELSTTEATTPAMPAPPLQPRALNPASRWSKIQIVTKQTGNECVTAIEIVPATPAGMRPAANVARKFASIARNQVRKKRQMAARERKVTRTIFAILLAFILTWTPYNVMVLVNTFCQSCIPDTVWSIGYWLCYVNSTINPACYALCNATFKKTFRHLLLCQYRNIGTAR
In short: (§1)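 Two modes: direct compound addition for agonism, or 15 min compound pre-incubation (or co-application) before carbachol at EC80 for inhibition. Calcium signal from Fluo-3 AM or Calcium 3 dye in CHO cells, 1 mM probenecid, pH 7.4, read 60 sec at 488/540 nm; DMSO 0.5% final.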

M1 muscarinic receptor = target: T2, M1 muscarinic receptor (Homo sapiens, UniProt P11229); test: Functional mobilization of intracellular calcium (FLIPR) in M1-CHO cells; format: cell-based
T2 construct: expressed in transfected cells; host or cells: CHO (M1-CHO)
T2 sequence (P11229 1-460): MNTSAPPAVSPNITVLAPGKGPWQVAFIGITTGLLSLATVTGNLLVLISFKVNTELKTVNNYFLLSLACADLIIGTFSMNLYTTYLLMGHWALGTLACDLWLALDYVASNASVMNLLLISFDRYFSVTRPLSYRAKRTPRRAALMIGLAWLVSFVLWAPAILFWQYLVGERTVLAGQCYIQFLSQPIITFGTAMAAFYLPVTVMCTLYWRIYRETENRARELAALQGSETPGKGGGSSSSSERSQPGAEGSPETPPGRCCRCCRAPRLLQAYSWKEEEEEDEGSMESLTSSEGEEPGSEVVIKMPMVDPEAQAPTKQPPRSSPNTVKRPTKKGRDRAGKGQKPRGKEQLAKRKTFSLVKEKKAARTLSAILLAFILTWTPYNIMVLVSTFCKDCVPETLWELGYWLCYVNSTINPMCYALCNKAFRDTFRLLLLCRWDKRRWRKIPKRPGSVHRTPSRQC
In short: as §1

[1] = Table 4, 100% efficacy is the maximum response obtained with the Carbachol control
[2] = Table 4, M4 receptor, calcium mobilization (FLIPR)
[3] = Table 4, M1 receptor, calcium mobilization (FLIPR)
[4] = M4 receptor, calcium mobilization
[5] = M4 receptor, calcium mobilization, read-out: M4 Efficacy
[6] = M1 receptor, calcium mobilization
[7] = M1 receptor, calcium mobilization, read-out: M1 Efficacy
[8] = Table 4, modulating M4 receptor
[9] = Table 4, modulating M1 receptor

Row | SMILES | Emax (M4 muscarinic receptor; [1]) [%] | M4 Activity (M4 muscarinic receptor; [2]) | Emax (M1 muscarinic receptor; [1]) [%] | M1 Activity (M1 muscarinic receptor; [3]) | M4 Activity (M4 muscarinic receptor; [4]) | Emax (M4 muscarinic receptor; [5]) [%] | M1 Activity (M1 muscarinic receptor; [6]) | Emax (M1 muscarinic receptor; [7]) [%] | also measured
1 | CCOC(=O)N1CCC(N2CCC3(CC2)CN(c2cccnc2)c2ccc(F)cc23)CC1 [compound 941] | 25 to 100 | xxx (activity was measured to be less than 2.0 μM) | 25 to 100 | xxx (activity was measured to be less than 2.0 μM) |  |  |  |  | 
2 | COCCOC(=O)N1C2CCC1CC(N1CCC3(CCc4ccccc43)CC1)C2 (centres unmarked) [compound 95] |  |  |  |  | xx (activity was measured to be between 0.1 μM and 1.0 μM) | < 65 | xxx (activity was measured to be less than 0.1 μM) | 65 to 85 | 
3 | CN([C@H]1CC2(CCN(C[C@H]3C[C@H]4CC[C@H]3C4)CC2)c2ccccc21)S(C)(=O)=O [compound 357] |  |  |  |  | x (activity was measured to be greater than 1.0 μM) | < 65 | xx (activity was measured to be between 0.1 μM and 1.0 μM) | < 65 | 
4 | CCOC(=O)N1C2CCC1CC(N1CCC3(CC1)CN(C(C)=O)c1c(F)cc(F)cc13)C2 (centres unmarked) [compound 897] | 25 to 100 | xxx (activity was measured to be less than 2.0 μM) | 25 to 100 | xxx (activity was measured to be less than 2.0 μM) |  |  |  |  | 
5 | CC(=O)N1CC2(CCN(C[C@@H]3CCN(C(=O)OCC(F)F)C3)CC2)c2ccccc21 [compound 1015] | < 25 | xxx (activity was measured to be less than 2.0 μM) | 25 to 100 | xx (activity was measured to be between 2.0 μM and 5.0 μM) |  |  |  |  | 
6 | CC(=O)N1CC2(CCN(CC3=C(C)C=CCC3(C)C)CC2)c2cc(F)ccc21 [compound 600] | < 25 |  | < 25 |  |  |  |  |  | M4 Activity (M4 muscarinic receptor; [8]): x (activity was measured to be greater than 5.0 μM); M1 Activity (M1 muscarinic receptor; [9]): x (activity was measured to be greater than 5.0 μM)
7 | CC(=O)N1CC2(CCN(C3CCN(C(=O)OCCF)C3)CC2)c2cc(F)ccc21 (centres unmarked) [compound 394] |  |  |  |  |  |  |  |  | EC50 (M4 muscarinic receptor; M4-CHO cells, calcium mobilization (FLIPR)): 100 to 1000 nM; Emax (M4 muscarinic receptor; M4-CHO cells, calcium mobilization (FLIPR), read-out: M4 Efficacy): < 65%; EC50 (M1 muscarinic receptor; M1-CHO cells, calcium mobilization (FLIPR)): < 100 nM; Emax (M1 muscarinic receptor; M1-CHO cells, calcium mobilization (FLIPR), read-out: M1 Efficacy): < 65%
8 | CCOC(=O)N1CCC(N2CCC3(CC2)CN(c2ncccn2)c2ccc(F)cc23)CC1 [compound 567] | 25 to 100 |  | 25 to 100 |  |  |  |  |  | M4 Activity (M4 muscarinic receptor; [8]): xxx (activity was measured to be less than 2.0 μM); M1 Activity (M1 muscarinic receptor; [9]): xxx (activity was measured to be less than 2.0 μM)
9 | O=C(OC1CCC1)N1C2CCC1CC(N1CCC3(CCc4ccccc43)CC1)C2 (centres unmarked) [compound 68] |  |  |  |  | x (activity was measured to be greater than 1.0 μM) | < 65 | xx (activity was measured to be between 0.1 μM and 1.0 μM) | < 65 | 
10 | Cc1ccc2c(c1)C1(CCN(C3CC4CCC3C4)CC1)CN2C(=O)NC(C)C (centres unmarked) [compound 667] | 25 to 100 |  | < 25 |  |  |  |  |  | M4 Activity (M4 muscarinic receptor; [8]): x (activity was measured to be greater than 5.0 μM); M1 Activity (M1 muscarinic receptor; [9]): x (activity was measured to be greater than 5.0 μM)
11 | CCCN1CC2(CCN(C[C@H]3C[C@H]4C=CC3C4)CC2)c2cc(F)ccc21 [compound 984] | 25 to 100 | xxx (activity was measured to be less than 2.0 μM) | 25 to 100 | xx (activity was measured to be between 2.0 μM and 5.0 μM) |  |  |  |  | 
12 | Clc1ccc2c(c1)C1(CCN(CC3CCCCC3)CC1)CN2 [compound 157] |  |  |  |  | x (activity was measured to be greater than 1.0 μM) | > 85 | xxx (activity was measured to be less than 0.1 μM) | 65 to 85 | 
13 | CCOC(=O)N1CCC(N2CCC3(CC2)CN(C(=O)NC(C)C)c2ccccc23)CC1 [compound 494] | 25 to 100 |  | 25 to 100 |  |  |  |  |  | M4 Activity (M4 muscarinic receptor; [8]): xxx (activity was measured to be less than 2.0 μM); M1 Activity (M1 muscarinic receptor; [9]): xx (activity was measured to be between 2.0 μM and 5.0 μM)
14 | CCOC(=O)N1CCC(N2CCC3(CC2)CN(C(C)=O)c2c(-c4ccc(F)cc4)cccc23)CC1 [compound 992] | 25 to 100 | x (activity was measured to be greater than 5.0 μM) | 25 to 100 | x (activity was measured to be greater than 5.0 μM) |  |  |  |  | 
15 | CCOC(=O)N1CCC(N2CCC3(CC2)CN(C(=O)c2ccc(OC)cc2)c2ccc(F)cc23)CC1 [compound 41] |  |  |  |  | xxx (activity was measured to be less than 0.1 μM) | > 85 | xxx (activity was measured to be less than 0.1 μM) | > 85 | 
16 | CN(C)C(=O)CN1CC2(CCN(C[C@@H]3C[C@H]4C=CC3C4)CC2)c2cc(F)ccc21 [compound 815] | 25 to 100 | xxx (activity was measured to be less than 2.0 μM) | 25 to 100 | xx (activity was measured to be between 2.0 μM and 5.0 μM) |  |  |  |  | 
17 | CC(C)C(=O)N(C)[C@H]1CC2(CCN(C[C@H]3C[C@H]4CC[C@H]3C4)CC2)c2ccccc21 [compound 246] |  |  |  |  | xx (activity was measured to be between 0.1 μM and 1.0 μM) | > 85 | xx (activity was measured to be between 0.1 μM and 1.0 μM) | < 65 | 
18 | CC(=O)N[C@H]1CC2(CCN(C3CCCCC3)C2)c2ccc(F)cc21 (some centres unmarked) [compound 691] | < 25 |  | 25 to 100 |  |  |  |  |  | M4 Activity (M4 muscarinic receptor; [8]): x (activity was measured to be greater than 5.0 μM); M1 Activity (M1 muscarinic receptor; [9]): x (activity was measured to be greater than 5.0 μM)
19 | Fc1ccc2c(c1)C1(CCN(C3CCC4CCC3C4)CC1)CN2 (centres unmarked) [compound 111] |  |  |  |  | xx (activity was measured to be between 0.1 μM and 1.0 μM) | < 65 | xxx (activity was measured to be less than 0.1 μM) | 65 to 85 | 
20 | CCOC(=O)N1C2CCC1CC(N1CCC3(CC[C@H](NS(C)(=O)=O)c4ccccc43)CC1)C2 (some centres unmarked) [compound 809] | 25 to 100 | xxx (activity was measured to be less than 2.0 μM) | 25 to 100 | xxx (activity was measured to be less than 2.0 μM) |  |  |  |  | 
21 | COc1ccc(CC(=O)N2CCC(N3CCC4(CC3)CN(C(=O)N(C)C)c3ccc(F)cc34)CC2)cc1 [compound 500] | < 25 |  | < 25 |  |  |  |  |  | M4 Activity (M4 muscarinic receptor; [8]): x (activity was measured to be greater than 5.0 μM); M1 Activity (M1 muscarinic receptor; [9]): x (activity was measured to be greater than 5.0 μM)
22 | CC(=O)NC1CCC2(CCN(CCC3CCCN(C(=O)N(C)C)C3)CC2)c2ccccc21 (centres unmarked) [compound 888] | < 25 | x (activity was measured to be greater than 5.0 μM) | 25 to 100 | xxx (activity was measured to be less than 2.0 μM) |  |  |  |  | 
23 | CC(=O)CN1CC2(CCN([C@@H]3C[C@H]4CCC3C4)CC2)c2cc(C)ccc21 [compound 878] | 25 to 100 | xxx (activity was measured to be less than 2.0 μM) | 25 to 100 | xxx (activity was measured to be less than 2.0 μM) |  |  |  |  | 
